What was measured:
MCF-7 cells = format: cell-based
[1] = tested on: Tartrate Resistant Acid Phosphatase (TRAP) activity in RAW-OC cells; format: cell-based, mouse
MDA-MB-231 cells = format: cell-based, human

Compound	effect on proliferation promoting activity of 17β-estradiol and spike (MCF-7 cells)	effect on the estradiol- or spike-induced decrease in TRAP activity [1]	cell proliferation (BrdU) (MDA-MB-231 cells)	activity of TRAP [1]
O=C(c1ccc(OCCN2CCCCC2)cc1)c1c(-c2ccc(O)cc2)sc2cc(O)ccc12 [Raloxifene, raloxifene]	blocked	blocked		
C[C@]12CC[C@@H]3c4ccc(O)cc4CC[C@H]3[C@@H]1CC[C@@H]2O [17β-estradiol]			do not significantly affect cell proliferation	superimposable decrease
